Assay results taken from ChEMBL document CHEMBL1201862, “PubChem BioAssay data set” (2004).
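48-hour exposure; five concentrations; linearly interpolated endpoints. At the GI50, growth is halved.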 Calls of active or inactive are those of the source. No stated cut-off is given here; in the data, active = GI50 up to about 1.1 µM and inactive = higher.

Assays:
Test in all cases: NCI-60 cell line screen, 48 h
NCI-H522 = test system: NCI-H522
KM12 = test system: KM12
K562 = test system: K562
A549 = test system: A549
RXF 393 = test system: RXF 393
SK-MEL-28 = test system: SK-MEL-28
OVCAR-5 = test system: OVCAR-5
MDA-N = test system: MDA-N
ACHN = test system: ACHN
IGROV-1 = test system: IGROV-1
HOP-92 = test system: HOP-92
OVCAR-3 = test system: OVCAR-3
786-0 = test system: 786-0
SNB-19 = test system: SNB-19
M14 = test system: M14
TK-10 = test system: TK-10
SR = test system: SR
HCC 2998 = test system: HCC 2998
Hs-578T = test system: Hs-578T
HL-60 = test system: HL-60
COLO 205 = test system: COLO 205
EKVX = test system: EKVX
MDA-MB-435 = test system: MDA-MB-435
SK-MEL-2 = test system: SK-MEL-2
MOLT-4 = test system: MOLT-4
DU-145 = test system: DU-145
SF-539 = test system: SF-539
CAKI-1 = test system: CAKI-1
HCT-15 = test system: HCT-15
CCRF-CEM = test system: CCRF-CEM
SK-OV-3 = test system: SK-OV-3
UACC-257 = test system: UACC-257
U-251 = test system: U-251
SF-295 = test system: SF-295
BT-549 = test system: BT-549
MDA-MB-231 = test system: MDA-MB-231
UO-31 = test system: UO-31
MCF7 = test system: MCF7
SF-268 = test system: SF-268
NCI-H23 = test system: NCI-H23
SW-620 = test system: SW-620
A498 = test system: A498
OVCAR-4 = test system: OVCAR-4
LOX IMVI = test system: LOX IMVI
PC-3 = test system: PC-3
NCI-H460 = test system: NCI-H460
RPMI-8226 = test system: RPMI-8226
HOP-62 = test system: HOP-62
SK-MEL-5 = test system: SK-MEL-5
SNB-75 = test system: SNB-75
HCT-116 = test system: HCT-116
UACC-62 = test system: UACC-62
T47D = test system: T47D
SN12C = test system: SN12C
NCI-H226 = test system: NCI-H226
NCI/ADR-RES = test system: NCI/ADR-RES
OVCAR-8 = test system: OVCAR-8
Malme-3M = test system: Malme-3M
HT-29 = test system: HT-29

Cc1cc(Cl)cc2c1NC(=O)/C2=N\Nc1ccccc1[N+](=O)[O-]
GI50 (NCI-H522): > 100 µM (inactive) | GI50 (KM12): > 100 µM (inactive) | GI50 (K562): > 100 µM (inactive) | GI50 (A549): > 100 µM (inactive) | GI50 (RXF 393): > 100 µM (inactive) | GI50 (SK-MEL-28): > 100 µM (inactive) | GI50 (OVCAR-5): > 100 µM (inactive) | GI50 (MDA-N): > 100 µM (inactive) | GI50 (ACHN): > 100 µM (inactive) | GI50 (IGROV-1): 19.1 µM (inactive) | GI50 (HOP-92): 27 µM (inactive) | GI50 (OVCAR-3): > 100 µM (inactive) | GI50 (786-0): 54.6 µM (inactive) | GI50 (SNB-19): > 100 µM (inactive) | GI50 (M14): > 100 µM (inactive) | GI50 (TK-10): > 100 µM (inactive) | GI50 (SR): 16.7 µM (inactive) | GI50 (HCC 2998): > 100 µM (inactive) | GI50 (Hs-578T): 35.3 µM (inactive) | GI50 (HL-60): > 100 µM (inactive) | GI50 (COLO 205): > 100 µM (inactive) | GI50 (EKVX): > 100 µM (inactive) | GI50 (MDA-MB-435): > 100 µM (inactive) | GI50 (SK-MEL-2): > 100 µM (inactive) | GI50 (MOLT-4): 74.3 µM (inactive) | GI50 (DU-145): 78.2 µM (inactive) | GI50 (SF-539): > 100 µM (inactive) | GI50 (CAKI-1): > 100 µM (inactive) | GI50 (HCT-15): > 100 µM | GI50 (CCRF-CEM): 21.1 µM (inactive) | GI50 (SK-OV-3): > 100 µM (inactive) | GI50 (UACC-257): > 100 µM (inactive) | GI50 (U-251): > 100 µM (inactive) | GI50 (SF-295): 64.7 µM (inactive) | GI50 (BT-549): > 100 µM (inactive) | GI50 (MDA-MB-231): 66.8 µM (inactive) | GI50 (UO-31): > 100 µM (inactive) | GI50 (MCF7): > 100 µM (inactive) | GI50 (SF-268): > 100 µM (inactive) | GI50 (NCI-H23): 40.5 µM (inactive) | GI50 (SW-620): > 100 µM (inactive) | GI50 (A498): > 100 µM (inactive) | GI50 (OVCAR-4): > 100 µM (inactive) | GI50 (LOX IMVI): 84.7 µM (inactive) | GI50 (PC-3): 38.8 µM (inactive) | GI50 (NCI-H460): > 100 µM (inactive) | GI50 (RPMI-8226): > 100 µM (inactive) | GI50 (HOP-62): 50.5 µM (inactive) | GI50 (SK-MEL-5): > 100 µM (inactive) | GI50 (SNB-75): > 100 µM (inactive) | GI50 (HCT-116): > 100 µM (inactive) | GI50 (UACC-62): > 100 µM (inactive) | GI50 (T47D): > 100 µM (inactive) | GI50 (SN12C): > 100 µM (inactive)

O=C1NC(=O)C(C(c2ccc(Cl)cc2)C2C(=O)NC(=O)NC2=O)C(=O)N1.c1ccncc1
GI50 (NCI-H522): > 100 µM (inactive) | GI50 (KM12): > 100 µM (inactive) | GI50 (K562): > 100 µM (inactive) | GI50 (A549): > 100 µM (inactive) | GI50 (RXF 393): 58.9 µM (inactive) | GI50 (SK-MEL-28): > 100 µM (inactive) | GI50 (OVCAR-5): > 100 µM (inactive) | GI50 (MDA-N): > 100 µM (inactive) | GI50 (ACHN): > 100 µM (inactive) | GI50 (IGROV-1): > 100 µM (inactive) | GI50 (HOP-92): > 100 µM (inactive) | GI50 (OVCAR-3): > 100 µM (inactive) | GI50 (786-0): > 100 µM (inactive) | GI50 (SNB-19): > 100 µM (inactive) | GI50 (NCI-H226): > 100 µM (inactive) | GI50 (M14): > 100 µM (inactive) | GI50 (TK-10): > 100 µM (inactive) | GI50 (NCI/ADR-RES): > 100 µM (inactive) | GI50 (Hs-578T): > 100 µM (inactive) | GI50 (HL-60): > 100 µM (inactive) | GI50 (COLO 205): > 100 µM (inactive) | GI50 (EKVX): > 100 µM (inactive) | GI50 (OVCAR-8): > 100 µM (inactive) | GI50 (MDA-MB-435): > 100 µM (inactive) | GI50 (SK-MEL-2): > 100 µM (inactive) | GI50 (MOLT-4): > 100 µM (inactive) | GI50 (DU-145): > 100 µM (inactive) | GI50 (Malme-3M): > 100 µM (inactive) | GI50 (CAKI-1): > 100 µM (inactive) | GI50 (HCT-15): > 100 µM | GI50 (CCRF-CEM): > 100 µM (inactive) | GI50 (UACC-257): > 100 µM (inactive) | GI50 (U-251): > 100 µM (inactive) | GI50 (SF-295): > 100 µM (inactive) | GI50 (BT-549): > 100 µM (inactive) | GI50 (MDA-MB-231): > 100 µM (inactive) | GI50 (UO-31): > 100 µM (inactive) | GI50 (MCF7): > 100 µM (inactive) | GI50 (HT-29): > 100 µM (inactive) | GI50 (NCI-H23): > 100 µM (inactive) | GI50 (SW-620): > 100 µM (inactive) | GI50 (A498): > 100 µM (inactive) | GI50 (OVCAR-4): > 100 µM (inactive) | GI50 (LOX IMVI): > 100 µM (inactive) | GI50 (PC-3): > 100 µM (inactive) | GI50 (NCI-H460): > 100 µM (inactive) | GI50 (RPMI-8226): > 100 µM (inactive) | GI50 (HOP-62): > 100 µM (inactive) | GI50 (SK-MEL-5): > 100 µM (inactive) | GI50 (HCT-116): > 100 µM (inactive) | GI50 (UACC-62): > 100 µM (inactive) | GI50 (T47D): > 100 µM (inactive) | GI50 (SN12C): > 100 µM (inactive)

Cc1ccccc1NC(=O)/C(C#N)=N\Nc1[nH]cnc1C(N)=O
GI50 (NCI-H522): 18 µM (inactive) | GI50 (KM12): 28.6 µM (inactive) | GI50 (K562): 1.89 µM (inactive) | GI50 (A549): > 100 µM (inactive) | GI50 (RXF 393): 15.3 µM (inactive) | GI50 (SK-MEL-28): 28.7 µM (inactive) | GI50 (OVCAR-5): 40.3 µM (inactive) | GI50 (MDA-N): 12.9 µM (inactive) | GI50 (ACHN): 5.28 µM (inactive) | GI50 (IGROV-1): 4.88 µM (inactive) | GI50 (OVCAR-3): 2.42 µM (inactive) | GI50 (786-0): 19.3 µM (inactive) | GI50 (SNB-19): > 100 µM (inactive) | GI50 (NCI-H226): 41.4 µM (inactive) | GI50 (M14): 2.66 µM (inactive) | GI50 (TK-10): 3.08 µM (inactive) | GI50 (NCI/ADR-RES): 2.45 µM (inactive) | GI50 (HCC 2998): 2.92 µM (inactive) | GI50 (Hs-578T): 24.3 µM (inactive) | GI50 (HL-60): > 100 µM (inactive) | GI50 (COLO 205): 21.9 µM (inactive) | GI50 (EKVX): 66.8 µM (inactive) | GI50 (OVCAR-8): 1.51 µM (inactive) | GI50 (MDA-MB-435): 4.68 µM (inactive) | GI50 (SK-MEL-2): 1.18 µM (inactive) | GI50 (MOLT-4): 2.88 µM (inactive) | GI50 (DU-145): 2.79 µM (inactive) | GI50 (Malme-3M): 4.62 µM (inactive) | GI50 (CAKI-1): 2.59 µM (inactive) | GI50 (HCT-15): 19.3 µM | GI50 (CCRF-CEM): 2.96 µM (inactive) | GI50 (SK-OV-3): 1.59 µM (inactive) | GI50 (UACC-257): 15.2 µM (inactive) | GI50 (U-251): 37.1 µM (inactive) | GI50 (SF-295): 9.82 µM (inactive) | GI50 (BT-549): > 100 µM (inactive) | GI50 (MDA-MB-231): 7.46 µM (inactive) | GI50 (UO-31): 1.62 µM (inactive) | GI50 (MCF7): 21.6 µM (inactive) | GI50 (SF-268): 4.11 µM (inactive) | GI50 (HT-29): 38.6 µM (inactive) | GI50 (NCI-H23): 32.6 µM (inactive) | GI50 (SW-620): 2.89 µM (inactive) | GI50 (OVCAR-4): 34.1 µM (inactive) | GI50 (PC-3): 4.44 µM (inactive) | GI50 (NCI-H460): 9.33 µM (inactive) | GI50 (RPMI-8226): 1.83 µM (inactive) | GI50 (HOP-62): 6.12 µM (inactive) | GI50 (SK-MEL-5): 35.3 µM (inactive) | GI50 (SNB-75): 54.5 µM (inactive) | GI50 (HCT-116): 4.37 µM (inactive) | GI50 (UACC-62): 12.9 µM (inactive) | GI50 (T47D): 25.9 µM (inactive) | GI50 (SN12C): 5 µM (inactive)
